{"source": "patent US20250244312A1", "about": "“EX VIVO COLONIC BIOPSY PLATFORM TO EVALUATE MULTI-OMIC SIGNATURES FOR SCREENING CANDIDATE THERAPEUTICS” (Athos Therapeutics, Inc., priority 2020, published 2025)", "assay_type_in_all_cases": "cell-based, human", "key": {"[1]": {"system": "IL-1B", "test": "IL-1B level in supernatant of colonic explant culture (ELISA), ex vivo biopsy high throughput platform", "settings": "12 h; for IL-1B levels / effectiveness at reducing IL1B levels, compared with the other inhibitors: 10 uM; for IL-1B levels: supernatant of UC active disease colonic biopsy replicate, vs untreated control well; for effectiveness at reducing IL1B levels, compared with the other inhibitors: UC colonic explant", "method": "(§1) Step 1: A biopsy was obtained from a macroscopically disease area of the inflammatory intestinal mucosa of an IBD patient. Samples can be from small or large intestine and the patient can be afflicted with, or suspected of having, UC or CD. The medium used to transport mucosal colonic biopsies from IBD patients was pre-cooled on ice, and comprised: Dulbecco's Modified Eagle Medium (DMEM) liquid (High Glucose), 4 mM L-alanyl-L-glutamine dipeptide, 1% penicillin/streptomycin and […] gentamicin. Tissue culture was initiated less than 1 hour after collection.\n(§2) Step 2: Once in the laboratory, the biopsy was washed in Hank's Balanced Salt Solution buffer for a few minutes (e.g., 2-5 min) and cut with sterile scalpels to create biopsy pieces (approximately 2-5 um sections). Media comprising Dulbecco's Modified Eagle Medium (DMEM) liquid (High Glucose), 4 mM L-alanyl-L-glutamine dipeptide, 1% FBS, 1% non-essential amino acids, 1% Sodium Pyruvate, 1% penicillin/streptomycin, […] gentamicin and 5 ug/ml insulin-transferrin-selenium-X, was pre-warmed at 37° C. and added to the pieces of the biopsy. The average volume of media for each biopsy was 1.5 mL, which allows generation of 10 replicates in a 96 well plate (150 uL/well) or 60 replicates in a 384 well plate (25 uL/well). The plates then were cultured in a humidified chamber with 95% O2 and 5% CO2. The 96-and 384-well plates are two non-limiting embodiments of the platform assay disclosed herein, though additional embodiments of the high throughput platform disclosed herein can be used to predict drug responses by evaluating multi-omic signatures in other multi-well formats.\n(§3) An embodiment of the ex vivo biopsy high throughput platform was used to assess the effects of G9A inhibitors BIX01294 (cat. No 3364, Tocris) and UNC0642 (cat. No 5132, Tocris), JMJD3 inhibitors GSK-J4 (cat. No 4594, Tocris) and JIB-04 (cat. No 4972, Tocris), and an EZH2 inhibitor UNC1999 (cat. No 4904, Tocris) (10 uM) on a multi-omic response, evaluating cytokine production levels and global chromatin H3K9me2 and H3K27me3 levels in UC active disease colonic explants.\n(§4) Specifically, a UC active disease colonic biopsy was processed as described in Example 1 and separated into 6 replicates in a 96-well plate. One well was used as control and the rest were treated with each compound at the concentration of 10 uM. Twelve hours later, 50 uL of supernatant was collected to evaluate IL-1B (#KHC0011, ThermoFisher) and TNFA levels (#BMS223HS, ThermoFisher); meanwhile, the tissue pellet was also collected and processed to check H3K9me2 (#P-3032, Epigentek) and H3K27me3 (#P-3020,Epigentek) levels by ELISA assay.\n(§5) The biopsy was processed as described in Example 1. Briefly, one well was used as control and treated with RNA-negative control (miR-NC, cat no. YI00199006, Qiagen) (1 uM), a second well was treated with the miR-24-A inhibitor (1 uM), and a third well was treated with miR-24-B inhibitor (1 uM). 50 uL of supernatant was collected to evaluate IL1B and TNFA levels and tissue pellet was collected and processed for RNA extraction (miRNeasy Kit, Qiagen). MicroRNA LNA miRNA PCR assays (Qiagen) were performed for miR-24-3p (cat.no YP00204260, Qiagen)."}, "[2]": {"system": "TNFA", "test": "TNFA level in supernatant of colonic explant culture (ELISA), ex vivo biopsy high throughput platform", "settings": "12 h; for TNFA levels / effectiveness at reducing TNFA levels, compared with the other inhibitors: 10 uM; for TNFA levels: supernatant of UC active disease colonic biopsy replicate, vs untreated control well; for effectiveness at reducing TNFA levels, compared with the other inhibitors: UC colonic explant", "method": "as §1, §2, §3, §4, §5"}, "[3]": {"system": "miR-24-3p", "test": "miR-24-3p expression in UC colonic explant culture (LNA miRNA PCR assay)", "settings": "1 uM, 12 h, UC colonic explant tissue pellet", "method": "as §1\nas §2, with “The 96-and 384-well plates are two non-limiting embodiments of the platform assay disclosed herein, though additional embodiments of the high throughput platform disclosed herein can be used to predict drug responses by evaluating multi-omic signatures in other multi-well formats.” left out"}, "[4]": {"system": "H3K9me2", "test": "Global chromatin H3K9me2 level in colonic explant tissue pellet (ELISA)", "settings": "10 uM, 12 h, tissue pellet of UC colonic explant", "method": "as §1\nas §2, with “The 96-and 384-well plates are two non-limiting embodiments of the platform assay disclosed herein, though additional embodiments of the high throughput platform disclosed herein can be used to predict drug responses by evaluating multi-omic signatures in other multi-well formats.” left out"}, "[5]": {"system": "H3K27me3", "test": "Global chromatin H3K27me3 level in colonic explant tissue pellet (ELISA)", "settings": "10 uM, 12 h, tissue pellet of UC colonic explant", "method": "as §1\nas §2, with “formats. […]” for “formats.”"}, "[6]": {"system": "IBD colonic explants", "test": "Cell viability of colonic explants (CellTiter-Blue assay)", "method": "as §1\nStep 3: Cell viability evaluation. To evaluate the effects of any drug using a colonic explant assay, the viability of the colonic explant in culture is examined. The experimental conditions related to the culture viability of the colonic explants were optimized by focusing on the media composition during the transfer of the biopsy from the patient biopsy collection site to the laboratory and the duration of culturing the explant.\nCellTiter-Blue assay (Promega) was used to evaluate cell viability of the colonic explants. Briefly, the CellTiter-Blue reagent was added in the culture and the fluorescent signal was measured (560/590 nm) after 1 h of incubation in 37° C. […]"}, "[7]": {"settings": "1 uM, UC colonic explant supernatant, control miR-NC"}}, "note": "Peptide text beside a SMILES is read from it. l = locked nucleic acid (LNA); [5mC] = 5-methylcytosine; d = 2'-deoxy (DNA)", "data": [{"molecule": "5-CTG^mCTGAA^mCTGAG^mCCA-3 (antisense CTGCTGAACTGAGCCA; sugars from the 5' end l3 d6 l2 d3 l2, [5mC] at 4, 9, 14, all phosphorothioate, methylation of C not given here) [miR-24-A, antisense-miR-24-3p compound; phosphorothioate linkages bases 1-16, LNA at bases 1-3, 10-11, 15-16,5-methylcytosine at positions 4,9, 14]", "values": [{"measurement": "reducing IL1B levels, compared to miR-24-B inhibitor", "setting": "[1]; [7]", "result": "more effective"}, {"measurement": "reducing TNFA levels, compared to miR-24-B inhibitor", "setting": "[2]; [7]", "result": "more effective"}, {"measurement": "miR-24-3p expression levels, compared to miR-24-B inhibitor", "setting": "[3]", "result": "more effectively suppressed"}]}, {"molecule": "COc1cc2nc(N3CCCN(C)CC3)nc(NC3CCN(Cc4ccccc4)CC3)c2cc1OC", "note": "[BIX01294]", "values": [{"measurement": "IL-1B levels", "setting": "[1]", "result": "reduced"}, {"measurement": "TNFA levels", "setting": "[2]", "result": "reduced"}, {"measurement": "H3K9me2 levels", "setting": "[4]", "result": "reduced"}]}, {"molecule": "CCOC(=O)CCNc1cc(N2CCc3ccccc3CC2)nc(-c2ccccn2)n1", "note": "[GSK-J4]", "values": [{"measurement": "effectiveness at reducing IL1B levels, compared with the other inhibitors", "setting": "[1]", "result": "more effective than BIX01294 and JIB-04"}, {"measurement": "IL-1B levels", "setting": "[1]", "result": "reduced"}, {"measurement": "effectiveness at reducing TNFA levels, compared with the other inhibitors", "setting": "[2]", "result": "more effective than BIX01294 and JIB-04"}, {"measurement": "TNFA levels", "setting": "[2]", "result": "reduced"}, {"measurement": "H3K27me3 levels", "setting": "[5]", "result": "increased"}]}, {"molecule": "Clc1ccc(N/N=C(\\c2ccccc2)c2ccccn2)nc1", "note": "[JIB-04]", "values": [{"measurement": "IL-1B levels", "setting": "[1]", "result": "reduced"}, {"measurement": "TNFA levels", "setting": "[2]", "result": "reduced"}, {"measurement": "H3K27me3 levels", "setting": "[5]", "result": "increased"}]}, {"molecule": "C[C@H](N)C(=O)N[C@@H](CCC(N)=O)C(=O)O", "note": "[L-alanyl-L-glutamine dipeptide] (H-Ala-Gln-OH)", "values": [{"measurement": "cell viability of colonic explants", "setting": "[6]; added to the transfer media (DMEM, penicillin/streptomycin, gentamicin)", "result": "substantial increase in cell viability"}, {"measurement": "concentration identified to have the highest cell viability", "setting": "[6]; in transfer media", "result": 4, "unit": "mM"}]}, {"molecule": "COc1cc2c(NC3CCN(C(C)C)CC3)nc(N3CCC(F)(F)CC3)nc2cc1OCCCN1CCCC1", "note": "[UNC0642]", "values": [{"measurement": "effectiveness at reducing IL1B levels, compared with the other inhibitors", "setting": "[1]", "result": "more effective than BIX01294 and JIB-04"}, {"measurement": "IL-1B levels", "setting": "[1]", "result": "reduced"}, {"measurement": "effectiveness at reducing TNFA levels, compared with the other inhibitors", "setting": "[2]", "result": "more effective than BIX01294 and JIB-04"}, {"measurement": "TNFA levels", "setting": "[2]", "result": "reduced"}, {"measurement": "H3K9me2 levels", "setting": "[4]", "result": "reduced"}]}, {"molecule": "CCCc1cc(C)[nH]c(=O)c1CNC(=O)c1cc(-c2ccc(N3CCN(C(C)C)CC3)nc2)cc2c1cnn2C(C)C", "note": "[UNC1999]", "values": [{"measurement": "IL-1B levels", "setting": "[1]", "result": "increased"}, {"measurement": "TNFA levels", "setting": "[2]", "result": "increased"}, {"measurement": "H3K27me3 levels", "setting": "[5]", "result": "reduced"}]}]}
